pKi: −log10 of the molar value.
Legend:
Type in all cases: biochemical
[1] = biological target: T1, unspecific peroxygenase (UPO) PaDa-I (Cyclocybe aegerita, UniProt B9W4V6, F354L/I291V/L110F/V100A/V118I); test: inhibition of catalase activity (O2 production, Clark electrode); substrate consumption by HPLC
T1 construct: gene APO1; laboratory-evolved variant PaDa-I, heterologously expressed and purified
T1 sequence (B9W4V6 44-371 V100A/L110F/V118I/I291V/F354L): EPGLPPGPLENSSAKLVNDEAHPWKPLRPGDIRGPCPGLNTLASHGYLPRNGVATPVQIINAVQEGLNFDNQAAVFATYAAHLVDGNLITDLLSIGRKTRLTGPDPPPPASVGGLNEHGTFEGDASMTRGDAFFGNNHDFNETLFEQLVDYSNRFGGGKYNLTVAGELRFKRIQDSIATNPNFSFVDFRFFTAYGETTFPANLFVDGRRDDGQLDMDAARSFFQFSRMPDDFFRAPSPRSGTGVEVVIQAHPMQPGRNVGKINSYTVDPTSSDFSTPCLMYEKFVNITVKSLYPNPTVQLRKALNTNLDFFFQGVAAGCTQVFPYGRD

[2] = biological target: T2, unspecific peroxygenase (UPO) PaDa-I (Cyclocybe aegerita, UniProt B9W4V6, V100A/L110F/V118I/I291V/F354L); test: colorimetric peroxygenation assay (4-nitrocatechol production), Michaelis-Menten plot
T2 construct: gene APO1; laboratory-evolved variant PaDa-I, heterologously expressed and purified
T2 sequence (B9W4V6 44-371 V100A/L110F/V118I/I291V/F354L): T1 sequence (B9W4V6 44-371 V100A/L110F/V118I/I291V/F354L)

[3] = biological target: T1, unspecific peroxygenase (UPO) PaDa-I; test: inhibition of NBD peroxygenation (Michaelis-Menten kinetics); also uncompetitive inhibition of ABTS peroxidation
[4] = biological target: T2, unspecific peroxygenase (UPO) PaDa-I; test: H2O2-dependent ether oxidation, total turnover number by HPLC

Compound: OCCOCc1ccccc1 [2-(benzyloxy)ethanol]
- pKi [1]: 3.41

Compound: O=[N+]([O-])c1ccc2c(c1)OCO2 [NBD, 5-nitro-1,3-benzodioxole]
- colorimetric peroxygenation assay (4-nitrocatechol production), Michaelis-Menten [2]: Michaelis–Menten plots for (A) NBD peroxygenation and (B) ABTS peroxidation in the presence of benzyloxyacetate

Compound: O=C(O)COCc1ccccc1 [benzyloxyacetate]
- pKi [3]: 2.46

Compound: c1ccc(COCc2ccccc2)cc1 [dibenzylether]
- H2O2-dependent ether oxidation, total turnover number by HPLC [4]: the more hydrophobic substrate (dibenzylether) was the most efficiently converted
